# Experimental data: patent publication US5616557A, “Process for selectively inhibiting activity of endotoxin” (Wako Pure Chemical Industries, Ltd., priority 1993, dated 1997)
# Test system: E. coli 0128:B12 LPS
# Assay: Limulus test of ET spiked plasma, Example 4
# Type: biochemical
# Details: 0.009 w/v % of Px B alone; ET 2 ng/ml, 80° C. 5 minutes (FIG. 4)
# Procedure: To 0.1 ml of the LAL solution was added 0.1 ml of the aforesaid diluted plasma, and stirred, after which a time required for reducing the transmittance of the resulting mixture by 5% (hereinafter abbreviated as "Tg") was measured while maintaining the temperature at 37° C. The ET concentration in the diluted plasma was determined on the basis of the thus obtained Tg value by use of a calibration curve showing the relationship between ET concentration and Tg which had been previously obtained by carrying out the same measurement as described above except for using ET solutions having various known concentrations in place of the samples.
# To 1.3 ml of normal human heparinized plasma was added 13 μl of ET solution having a predetermined concentration, and 100 μl of the resulting ET spiked plasma was diluted 10 times with 900 μl of distilled water for injection, each of aqueous surfactant solutions having predetermined concentrations, each of aqueous Px B solutions having predetermined concentrations, or each of aqueous Px B solutions having predetermined concentrations and containing 0.1 w/v % or 0.2 w/v % of the surfactant (polyoxyethylene glycol p-t-octylphenyl ether), respectively. […] The ET concentration in the diluted plasma thus obtained was measured in the same manner as in Example 1.
substance,measurement,value
polymyxin B [Px B],ET activity in plasma,completely inhibited
